These results are taken from ChEMBL document CHEMBL5380820, “Design and Discovery of Novel Cyclic Peptides as EDPs-EBP Interaction Inhibitors for the Treatment of Liver Fibrosis” (J Med Chem, 2023).

The subject of data set [1] is LX-2. Put plainly: Inhibition of cell migration in human LX2 cells assessed as decreased cell number in wound area measured at 0 to 24 hrs by wound healing assay. It counts as functional, cell-based. The conditions noted are these: time 0-24 hrs.
For data set [2], the system named is Mus musculus. Put plainly: Antifibrotic activity in CCl4-induced C57BL/6 mouse model of liver fibrosis assessed as decrease of hydroxyproline content in liver treated at 150 ug/kg ip daily for 3 weeks fasted for 9 hrs after last dose and sacrificed after 8 hrs of fasting by […] analysis. It counts as functional, organism-based. The note with it: dose 150.0 µg/kg, time 3.033 weeks.

The subject of data set [3] is Mus musculus. Description: Antifibrotic activity in CCl4-induced C57BL/6 mouse model of liver fibrosis assessed as reduction of collagen deposition in liver treated at 150 ug/kg, ip daily for 3 weeks fasted for 9 hrs after last dose and sacrificed after 8 hrs of fasting by hematoxylin and eosin staining analysis. The format is functional, organism-based. The conditions noted are these: dose 150.0 µg/kg, time 3.033 weeks.

Data set [4] concerns LX-2. Put plainly: Antiproliferative activity against TGF-beta induced human LX2 cells assessed as decrease in cell proliferation at 10 uM for 24 hrs by BeyoClick EdU cells proliferation kit with Alex Fluor 488 and DAPI staining analysis. The format is functional, cell-based.
Data set [5] in a line: Tmax in Sprague-Dawley rat plasma at 0.1 mg/kg, sc by HPLC-MS/MS analysis. The format is ADME, organism-based.
The test system of data set [6] is LX2. Put plainly: Inhibition of elastin receptor complex elastin binding protein subunit in human LX2 cells assessed as inhibition of EDP induced PI3K phosphorylation treated at 10 uM for 24 hrs by Western blot analysis. The format is cell-based. Background: Immunoblotting shows a protein as a band on a membrane.
The test system of data set [7] is LX2. Put plainly: Inhibition of elastin receptor complex elastin binding protein subunit in human LX2 cells assessed as inhibition of EDP induced AMPK phosphorylation treated at 10 uM for 24 hrs by Western blot analysis. The format is cell-based.
In data set [8] the test system is LX-2. Description: Antifibrotic activity against TGF-beta induced human LX2 cells assessed as reduction of collagen I expression measured at 10 uM for 24 hrs by measuring fluorescence intensity relative to control. It counts as functional. Details: scale not given: the % may be the effect or the level left.
Data set [9] concerns LX-2. Put plainly: Antifibrotic activity against TGF-beta induced human LX2 cells assessed as inhibition of alpha-SMA expression by measuring fluorescence intensity relative to control. The format is functional.
Data set [10] deals with LX-2. Put plainly: Antifibrotic activity against TGF-beta induced human LX2 cells assessed as reduction of alpha-SMA expression measured at 10 uM for 24 hrs by measuring fluorescence intensity relative to control. The format is functional. Also on record: scale not given: the % may be the effect or the level left.
The nature of data set [11]: Half life in Sprague-Dawley rat plasma at 0.1 mg/kg, sc by HPLC-MS/MS analysis. It counts as ADME, organism-based.
Data set [12] relates to LX-2. Description: Antifibrotic activity against TGF-beta induced human LX2 cells assessed as inhibition of collagen I expression by measuring fluorescence intensity relative to control. It counts as functional.
In data set [13] the test system is LX-2. Put plainly: Antifibrotic activity against TGF-beta induced human LX2 cells assessed as inhibition of neuraminidase activity using NA fluorogenic substrate by measuring fluorescence intensity relative to control. It counts as functional.
Data set [14] deals with Mus musculus. Put plainly: Antifibrotic activity in CCl4-induced C57BL/6 mouse model of liver fibrosis assessed as reduction in alpha-SMA level treated at 150 ug/kg, ip daily for 3 weeks by Western blo analysis. It counts as functional, organism-based. The note with it: dose 150.0 µg/kg.
Data set [15] has as its system LX2. Description: Inhibition of elastin receptor complex elastin binding protein subunit in human LX2 cells assessed as inhibition of EDP induced ERK phosphorylation treated at 10 uM for 24 hrs by Western blot analysis. The format is cell-based.
A short description of data set [16]: Stability in mouse serum assessed as half life measured by RP-HPLC-MS analysis. The format is ADME, cell-free.

Each structure is given as a SMILES string. Activity calls are given as the source filed them. Where a SMILES comes first, the peptide text is derived from it. Where only a bound is given, the exact number is not on record here.

Consider `CC(C)C[C@@H]1NC(=O)[C@@H]2CCCN2C(=O)[C@H](CO)NC(=O)[C@H](C)NC(=O)[C@H](CCC(=O)O)NC(=O)[C@H](CC(=O)O)NC(=O)[C@H](CCC(N)=O)NC(=O)[C@H](C)NC(=O)[C@H](CO)NC(=O)[C@@H]2CCCN2C(=O)[C@H](CO)NC(=O)CNC(=O)[C@H](C(C)C)NC(=O)[C@H](C(C)C)NC1=O` (cyclo(AQDEASPLVVGSPS)), for which the inhibition entry with LX-2 [1], in the data set with LX2 [6], with LX2 [7] and with LX2 [15] was “Active” each time. Also, the outcome in the data set on Mus musculus [2], in the data set on Mus musculus [3], in the data set with LX-2 [4] and with Mus musculus [14] was Active. In addition, the Tmax (commonly the time from dosing to the highest level) in data set [5] was 10.2 min. For the same compound, the Activity with LX-2 [8] and in the data set on LX-2 [10] was approximately 50% throughout. Besides, the “inhibition (INH)” value in the data set with LX-2 [9] amounted to 45.3%; in the data set with LX-2 [12] it was 39.7%; in the data set on LX-2 [13], 79.8%. Besides, the half-life (in general, the time needed for the level to fall by half in the phase considered) in data set [11] was 19.8 min; in data set [16], more than 36 h.
